According to US20050129687A1, “Use of inhibitors of PACAP receptor activity for treatment of overactive bladder and pelvic floor pain syndrome” (University of Vermont and State Agricultural College, priority 2003, published 2005):
Where no end group is shown, it is not given here.

Key:
[1] = system: rat with chronic spinal cord injury (SCI); test: Conscious cystometry in rats with chronic spinal cord injury (SCI); type: in vivo
Method: A complete spinal cord transaction was performed in adult, female rats anesthetized with isoflurane (2-3%). Animals received antibiotic and analgesic treatment following surgery. Animals were evaluated using conscious cystometry six-weeks following surgery when each animal had recovered automatic micturition. The University of Vermont IACUC approved all experimental procedures (protocol #02-108, 03-030, 03-148D) involving animal use. Animal care was under the supervision of the University of Vermont's Office of Animal Care in accordance with the Association for Assessment and Accreditation of Laboratory Animal Care and National Institutes of Health guidelines. All efforts were made to minimize animal stress/distress and suffering and to use the minimum number of animals. Currently, no alternatives exist to the use of whole, live animals in the present study.
(§1) Rats were anesthetized with isoflurane anesthesia (2-3%) and the atlanto-occiptal membrane was exposed by aseptic surgical technique. Polyethylene tubing (PE-10, Clay Adams, Parsippany, N.J.) was inserted under the membrane and passed to the lumbosacral spinal cord (L6-S1). Correct catheter placement was confirmed at time of euthanasia. The intrathecal catheter was secured in place with a small drop of dental cement and the incision was closed in two layers. The intravesical catheter was then inserted.
(§2) A lower midline abdominal incision was performed under general anesthesia (ketamine 60 mg/kg, xylazine 10 mg/kg, i.p.), and polyethylene tubing (PE-50) with the end flared by heat was inserted into the dome of the bladder and secured in place with a 6-0 nylon purse string suture. The distal end of the tubing was sealed, tunneled subcutaneously and externalized at the back of the neck, out of the animal's reach. Abdominal and neck incisions were closed with 4-0 nylon sutures. Animals were maintained for 72 hours after survival surgery to ensure complete recovery.
(§3) Control rats and rats treated with CYP (acute; 4 hr or intermediate; 48 hr) or SCI rats and also treated with a specific PACAP antagonist, PACAP6-38 or vehicle (0.9% saline), were evaluated with cystometry. For conscious cystometry, a rat was placed unrestrained in a cage. Prior to the start of the recording, the bladder was emptied and the catheter was connected via a T-tube to a pressure transducer (Grass® Model PT300, West Warwick, R.I.) and microinjection pump (Harvard Apparatus 22, South Natick, Mass.). We infused a 0.9% saline solution at room temperature into the bladder at a rate of 10 ml/hour. Intravesical pressure was recorded continuously using a Neurodata Acquisition System (Grass® Model 15, Astro-Med, Inc, West Warwick, R.I.). At least four reproducible micturition cycles were recorded after the initial stabilization period of 25-30 minutes. The following cystometric parameters were recorded in each animal: filling pressure (pressure at the beginning of the bladder filling), threshold pressure (bladder pressure immediately prior to micturition), micturition pressure (the maximal bladder pressure during micturition), micturition interval (time between micturition events), void volume and presence or absence of non-voiding bladder contractions (NVC). For the present study, NVCs were defined as increases in bladder pressure of at least 7 cm H2O without release of urine.
All values are means±S.E.M. Comparisons of urodynamic parameters between control and experimental treatments were made using the […]. When F ratios exceeded the critical value (P≦0.05), the Dunnett's post-hoc test was used to compare the control mean with each experimental mean.

[2] = system: rat with chronic CYP-induced cystitis; test: Conscious cystometry in rats with chronic CYP-induced cystitis; type: in vivo
Method: (§4) Chemical cystitis was induced in adult female Wistar rats by cyclophosphamide (CYP), which is metabolized to acrolein, an irritant eliminated in the urine. CYP (Sigma ImmunoChemicals, St. Louis, Mo.) was administered in one of the following ways: (1) 4 hr (150 mg/kg; i.p.) prior to euthanasia of the animals to elicit acute inflammation (n=6); (2) 48 hr (150 mg/kg; i.p.) prior to euthanasia to examine an intermediate inflammation (n=6) or (3) administered every third day for 10 days to elicit chronic inflammation (n=8; 75 mg/kg; i.p). All injections of CYP were performed under isoflurane (2%) anesthesia.
as §1, §2, §3
The effects of a specific PAC1 receptor antagonist, PACAP6-38 (i.t. or intravesical) (Peninsula Pharmaceuticals) or vehicle (0.9% saline, i.t. or intravesical; artificial cerebrospinal fluid, aCSF, i.t.) on lower urinary tract function in rats treated with CYP (4 hr, 48 hr or chronic cystitis) were evaluated. Separate groups of rats were used to evaluate the effects of PACAP6-38 given either through the i.t. catheter or the intravesical catheter. After recording at least three reproducible micturition cycles, PACAP6-38 or saline was administered through the catheters (i.t. or intravesical) and the effects evaluated.
All values are means±S.E.M. Comparisons of urodynamic parameters between control and experimental treatments were made using the Fischer exact test. […]

tracheal muscles in cats = details: cited from earlier work
[3] = system: rat with acute (4 hr) CYP-induced cystitis; test: Conscious cystometry in rat with acute (4 hr) CYP-induced cystitis, intravesical delivery; type: in vivo; details: 200 nmol intravesically
Method: as §4, §2
Control rats and rats treated with CYP (acute; 4 hr or intermediate; 48 hr) or SCI rats and also treated with a specific PACAP antagonist, PACAP6-38 or vehicle (0.9% saline), were evaluated with cystometry. […] Intravesical pressure was recorded continuously using a Neurodata Acquisition System (Grass® Model 15, Astro-Med, Inc, West Warwick, R.I.). At least four reproducible micturition cycles were recorded after the initial stabilization period of 25-30 minutes. The following cystometric parameters were recorded in each animal: filling pressure (pressure at the beginning of the bladder filling), threshold pressure (bladder pressure immediately prior to micturition), micturition pressure (the maximal bladder pressure during micturition), micturition interval (time between micturition events), void volume and presence or absence of non-voiding bladder contractions (NVC). […]

[4] = 1 nmol intrathecally, rat with chronic SCI
[5] = 1 nmol, SCI rats compared to SCI rats treated with vehicle (aCSF) (FIG. 7)
[6] = acute (4 hr) CYP-induced cystitis (FIG. 4)
[7] = 1 nmol intrathecally, rat with chronic CYP-induced cystitis (FIG. 1)

| Substance | effect of intrathecal agonist on the PACAP6-38-induced reduction of pressures ([1]; SCI rats, intrathecal, after PACAP6-38 (FIG. 7)) | effect of agonist on the PACAP6-38-induced change in intercontraction interval ([2]; rats treated chronically with CYP, after PACAP6-38 treatment) | inhibitory-NANC (non-adrenergic, non-cholinergic) relaxation (tracheal muscles in cats) | Non-voiding bladder contractions [1, 4] | persistence of drug effects after administration [1, 4] | micturition pressures ([1]; 1 nmol intrathecally, rat with chronic SCI (FIGS. 5 and 6)) | Intermicturition pressure [1, 5] | micturition pressure [1, 5] | threshold pressure [1, 5] | persistence of drug effects after administration ([3]; acute (4 hr) CYP-induced cystitis) | appearance of non-voiding bladder contractions [3, 6] | intercontraction interval [3, 6] | persistence of drug effects after administration ([2]; 1 nmol intrathecally, rat with chronic CYP-induced cystitis) | appearance of non-voiding bladder contractions [2, 7] | intercontraction interval [2, 7] | intercontraction interval ([2]; rats treated chronically with CYP, 1 or 10 nmol (FIG. 3)) | Non-voiding bladder contractions per cycle (NVC/cycle) ([2]; rats treated chronically with CYP, compared to untreated rats with CYP-induced cystitis (FIG. 2)) |
| --- | --- | --- | --- | --- | --- | --- | --- | --- | --- | --- | --- | --- | --- | --- | --- | --- | --- |
| Pituitary adenylate cyclase-activating polypeptide (HSDGIFTDSYSRYRKQMAVKKYLAAVLGKRYKQRVKNK; ends and bridges not checked) [PACAP, polypeptide hormone that stimulates adenylate cyclase in pituitary cells; used as agonist] | blocked this effect | reversed |  |  |  |  |  |  |  |  |  |  |  |  |  |  |  |
| Phe-Thr-Asp-Ser-Tyr-Ser-Arg-Tyr-Arg-Lys-Gln-Met-Ala-Val-Lys-Lys-Tyr-Leu-Ala-Ala-Val-Leu-Gly-Lys-Arg-Tyr-Lys-Gln-Arg-Val-Lys-Asn-Lys (FTDSYSRYRKQMAVKKYLAAVLGKRYKQRVKNK) [PACAP6-38] |  |  | partially but significantly inhibited | not eliminated by treatment but reduced in pressure | at least 5 hours | reduced | reduced | reduced | reduced | at least 2 hours | reduced | increased | at least 5 hours | reduced | increased | significantly lengthened | significantly reduced |
